Each structure is given as a SMILES string. Where a name gives a salt, the structure may show the parent alone. Read-outs that look alike come from different tables or passages of the source.

For this test, the target named is T1, hNaV1.7 (Homo sapiens, UniProt Q15858).
T1 construct: expressed in transfected cells; host or cells: HEK293
As to the kind of experiment: QPatch NaV1.7 assay (whole-cell patch clamp, QPatch16x). The format is cell-based. To be noted: HEK293-hNaV1.7 cells. In outline:
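Automated whole-cell recordings in hNaV1.7-expressing HEK293 cells, holding at either −90 mV (mostly closed channels) or the half-inactivation voltage. Compounds applied cumulatively at four concentrations for 120 s each; peak current on 20 ms depolarisation to 0 mV fitted by Hill equation to yield pIC50.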

[1] abbreviates: holding voltage V1/2 SSI (half of channels inactivated), read-out: QP Nav1.7 SSI vhalf pIC50 (converted).
Setting [2] is: holding voltage −90 mV (most channels closed), read-out: QP Nav1.7 −90 mV pIC50 (converted).

T1 sequence (Q15858 whole entry): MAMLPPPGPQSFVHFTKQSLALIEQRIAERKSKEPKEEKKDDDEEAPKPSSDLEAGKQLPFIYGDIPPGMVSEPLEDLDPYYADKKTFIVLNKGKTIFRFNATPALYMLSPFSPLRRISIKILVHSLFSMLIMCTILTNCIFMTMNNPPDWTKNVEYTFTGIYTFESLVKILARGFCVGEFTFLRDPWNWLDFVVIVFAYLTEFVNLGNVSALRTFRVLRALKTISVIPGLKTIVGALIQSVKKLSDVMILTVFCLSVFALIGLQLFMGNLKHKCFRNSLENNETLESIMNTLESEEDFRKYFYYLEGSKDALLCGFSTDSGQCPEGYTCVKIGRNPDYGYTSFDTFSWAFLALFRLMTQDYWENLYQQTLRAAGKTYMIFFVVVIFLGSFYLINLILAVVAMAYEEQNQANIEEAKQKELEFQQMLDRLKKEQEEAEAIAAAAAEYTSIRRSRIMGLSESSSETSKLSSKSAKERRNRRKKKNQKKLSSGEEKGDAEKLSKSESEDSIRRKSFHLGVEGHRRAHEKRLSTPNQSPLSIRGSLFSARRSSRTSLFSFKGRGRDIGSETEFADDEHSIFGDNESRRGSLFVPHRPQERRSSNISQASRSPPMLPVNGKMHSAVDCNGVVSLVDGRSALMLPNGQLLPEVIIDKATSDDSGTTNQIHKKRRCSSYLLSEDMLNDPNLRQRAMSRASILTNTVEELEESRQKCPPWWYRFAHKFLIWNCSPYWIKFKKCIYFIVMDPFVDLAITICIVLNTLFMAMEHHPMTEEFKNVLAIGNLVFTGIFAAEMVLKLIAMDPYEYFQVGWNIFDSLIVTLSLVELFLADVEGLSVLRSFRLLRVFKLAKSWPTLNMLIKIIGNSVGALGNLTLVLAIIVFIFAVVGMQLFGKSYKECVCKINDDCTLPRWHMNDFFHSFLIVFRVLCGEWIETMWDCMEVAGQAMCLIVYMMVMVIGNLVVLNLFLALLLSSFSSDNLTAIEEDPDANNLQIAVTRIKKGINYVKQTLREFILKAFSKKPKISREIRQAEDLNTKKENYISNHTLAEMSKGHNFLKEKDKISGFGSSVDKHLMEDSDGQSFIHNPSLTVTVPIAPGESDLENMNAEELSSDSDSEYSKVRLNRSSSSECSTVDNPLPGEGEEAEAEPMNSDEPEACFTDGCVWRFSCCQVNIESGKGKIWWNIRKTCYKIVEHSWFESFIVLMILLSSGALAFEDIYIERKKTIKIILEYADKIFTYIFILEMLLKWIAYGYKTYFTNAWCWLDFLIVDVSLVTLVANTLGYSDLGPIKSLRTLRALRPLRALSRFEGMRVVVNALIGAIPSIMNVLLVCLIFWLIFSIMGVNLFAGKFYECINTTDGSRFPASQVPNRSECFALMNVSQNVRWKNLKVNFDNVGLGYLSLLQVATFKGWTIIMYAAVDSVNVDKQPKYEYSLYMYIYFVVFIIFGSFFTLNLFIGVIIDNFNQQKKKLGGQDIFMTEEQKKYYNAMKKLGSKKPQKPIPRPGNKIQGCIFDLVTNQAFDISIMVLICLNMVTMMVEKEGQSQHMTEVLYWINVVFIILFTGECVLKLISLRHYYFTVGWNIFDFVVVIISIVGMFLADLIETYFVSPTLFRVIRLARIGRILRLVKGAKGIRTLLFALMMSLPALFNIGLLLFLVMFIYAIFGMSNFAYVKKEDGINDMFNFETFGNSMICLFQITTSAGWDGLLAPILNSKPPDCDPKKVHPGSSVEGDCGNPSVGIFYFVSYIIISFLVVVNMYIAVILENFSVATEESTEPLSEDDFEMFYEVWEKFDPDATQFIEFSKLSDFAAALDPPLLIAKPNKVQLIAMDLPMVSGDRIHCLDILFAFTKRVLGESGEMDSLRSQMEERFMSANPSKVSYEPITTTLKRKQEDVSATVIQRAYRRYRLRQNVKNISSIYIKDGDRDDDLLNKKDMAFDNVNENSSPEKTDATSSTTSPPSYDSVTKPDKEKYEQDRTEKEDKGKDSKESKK

`O=C1NCC[C@@]12CC[C@@H](c1cc(-c3cccc(OC(F)(F)F)c3)ccn1)N2` [Example 119, (2S,5S)-2-[4-[3-(Trifluoromethoxy)phenyl]-2-pyridyl]-1,7-diazaspiro[4.4]nonan-6-one hydrochloride]: the IC50 runs as follows: under setting [1], 3.98 µM; under setting [2], 31.6 µM.
The like results for `CCOc1ccc(F)c(-c2cc(C)nc([C@@H]3CC[C@]4(CCN(C)C4=O)N3)c2)c1` [Example 120, (2S,5R)-2-[4-(5-Ethoxy-2-fluoro-phenyl)-6-methyl-pyridin-2-yl]-7-methyl-1,7-diaza-spiro[4.4]nonan-6-one hydrochloride] were, in that order, 0.794 µM and 20 µM.
The like results for `CCOc1ccc(F)c(-c2cc(C)nc([C@H]3CC[C@]4(CCN(C)C4=O)N3)c2)c1` [Example 121, (2R,5R)-2-[4-(5-Ethoxy-2-fluoro-phenyl)-6-methyl-pyridin-2-yl]-7-methyl-1,7-diaza-spiro[4.4]nonan-6-one hydrochloride] were, in that order, 0.631 µM and 12.6 µM.
The like results for `COc1cc(C(F)(F)F)ccc1-c1cc(C)nc([C@@H]2CC[C@@]3(CCN(C)C3=O)N2)c1` [Example 122, (2S,5S)-2-[4-[2-Methoxy-4-(trifluoromethyl)phenyl]-6-methyl-2-pyridyl]-7-methyl-1,7-diazaspiro[4.4]nonan-6-one hydrochloride] were, in that order, 3.16 µM and 7.94 µM.
On to `CCOc1cc(-c2cc(C)nc([C@@H]3CC[C@]4(CCN(C)C4=O)N3)c2)ccc1F` [Example 123, (2S,5R)-2-[4-(3-Ethoxy-4-fluoro-phenyl)-6-methyl-2-pyridyl]-7-methyl-1,7-diazaspiro[4.4]nonan-6-one hydrochloride], for which the IC50 is, setting by setting: under setting [1], 39.8 µM; under setting [2], 251 µM.
The like results for `CCOc1cc(-c2cc(C)nc([C@H]3CC[C@]4(CCN(C)C4=O)N3)c2)ccc1F` [Example 124, (2R,5R)-2-[4-(3-Ethoxy-4-fluoro-phenyl)-6-methyl-2-pyridyl]-7-methyl-1,7-diazaspio[4.4]nonan-6-one hydrochloride] were, in that order, 7.94 µM and 126 µM.
The like results for `CCOc1cc(-c2cc(C)nc([C@H]3CC[C@@]4(CCN(C)C4=O)N3)c2)ccc1F` [Example 125, hydrochloride] were, in that order, 25.1 µM and 158 µM.
The like results for `CCOc1cc(-c2cc(C)nc([C@@H]3CC[C@@]4(CCN(C)C4=O)N3)c2)ccc1F` [Example 126, (2S,5S)-2-[4-(3-Ethoxy-4-fluoro-phenyl)-6-methyl-2-pyridyl]-7-methyl-1,7-diazaspiro[4.4]nonan-6-one hydrochloride] were, in that order, 20 µM and 316 µM.
For the compound `Cc1cc(-c2cccc(OC(F)(F)F)c2)cc([C@H]2CC[C@@]3(CCN(C)C3=O)N2)n1` [Example 127, (2R,5S)-7-Methyl-2-[6-methyl-4-[3-(trifluoromethoxy)phenyl]-2-pyridyl]-1,7-diazaspiro[4.4]nonan-6-one hydrochloride], the IC50 reads like this: under setting [1], 12.6 µM; under setting [2], 12.6 µM.
Turning to `Cc1cc(-c2cccc(OC(F)(F)F)c2)cc([C@@H]2CC[C@]3(CCN(C)C3=O)N2)n1` [Example 128, (2S,5R)-7-Methyl-2-[6-methyl-4-[3-(trifluoromethoxy)phenyl]-2-pyridyl]-1,7-diazaspiro[4.4]nonan-6-one hydrochloride], the IC50 is, setting by setting: under setting [1], 5.01 µM; under setting [2], 20 µM.
On to `COc1cc(C(F)(F)F)ccc1-c1cc([C@@H]2CC[C@]3(CCN(C)C3=O)N2)ncc1C` [Example 129, (2S,5R)-2-[4-[2-Methoxy-4-(trifluoromethyl)phenyl]-5-methyl-2-pyridyl]-7-methyl-1,7-diazaspiro[4.4]nonan-6-one hydrochloride], for which the IC50 is 20 µM under setting [1] and 200 µM under setting [2].
Consider `COc1cc(C(F)(F)F)ccc1-c1cc([C@H]2CC[C@]3(CCN(C)C3=O)N2)ncc1C` [Example 130, (2R,5R)-2-[4-[2-Methoxy-4-(trifluoromethyl)phenyl]-5-methyl-2-pyridyl]-7-methyl-1,7-diazaspiro[4.4]nonan-6-one hydrochloride], for which the IC50 runs as follows: under setting [1], 7.94 µM; under setting [2], 158 µM.
The like results for `COc1cc(C(F)(F)F)ccc1-c1cc([C@H]2CC[C@@]3(CCN(C)C3=O)N2)ncc1C` [Example 131, (2R,5S)-2-[4-[2-Methoxy-4-(trifluoromethyl)phenyl]-5-methyl-2-pyridyl]-7-methyl-1,7-diazaspiro[4.4]nonan-6-one hydrochloride] were, in that order, 2 µM and 100 µM.
In the case of `COc1cc(C(F)(F)F)ccc1-c1cc([C@@H]2CC[C@@]3(CCN(C)C3=O)N2)ncc1C` [Example 132, (2S,5S)-2-[4-[2-Methoxy-4-(trifluoromethyl)phenyl]-5-methyl-2-pyridyl]-7-methyl-1,7-diazaspiro[4.4]nonan-6-one hydrochloride], the IC50 runs as follows: under setting [1], 39.8 µM; under setting [2], 251 µM.
The like results for `CCOc1ccc(F)c(-c2cc([C@H]3CC[C@@]4(CCN(C)C4=O)N3)ncc2C)c1` [Example 137, (2R,5S)-2-[4-(5-Ethoxy-2-fluoro-phenyl)-5-methyl-2-pyridyl]-7-methyl-1,7-diazaspiro[4.4]nonan-6-one hydrochloride] were, in that order, 20 µM and 158 µM.
With `CCOc1ccc(F)c(-c2cc([C@@H]3CC[C@@]4(CCN(C)C4=O)N3)ncc2C)c1` [Example 138, (2S,5S)-2-[4-(5-Ethoxy-2-fluoro-phenyl)-5-methyl-2-pyridyl]-7-methyl-1,7-diazaspiro[4.4]nonan-6-one hydrochloride], the IC50 under setting [1] was 25.1 µM and the IC50 under setting [2] is 200 µM.
The like results for `CCOc1ccc(F)c(-c2cc([C@@H]3CC[C@]4(CCN(C)C4=O)N3)ncc2C)c1` [Example 139, (2S,5R)-2-[4-(5-Ethoxy-2-fluoro-phenyl)-5-methyl-2-pyridyl]-7-methyl-1,7-diazaspiro[4.4]nonan-6-one hydrochloride] were, in that order, 39.8 µM and 251 µM.
Regarding `CCOc1ccc(F)c(-c2cc([C@H]3CC[C@]4(CCN(C)C4=O)N3)ncc2C)c1` [Example 140, (2R,5R)-2-[4-(5-Ethoxy-2-fluoro-phenyl)-5-methyl-2-pyridyl]-7-methyl-1,7-diazaspiro[4.4]nonan-6-one hydrochloride], the IC50 under setting [1] is 31.6 µM and the IC50 under setting [2] was 100 µM.
The like results for `CCOc1ccc(F)c(-c2cc([C@H]3CC[C@]4(CCN(C)C4=O)N3)nc(C)c2C)c1` [Example 141, (2R,5R)-2-[4-(5-Ethoxy-2-fluoro-phenyl)-5,6-dimethyl-2-pyridyl]-7-methyl-1,7-diazaspiro[4.4]nonan-6-one hydrochloride] were, in that order, 6.31 µM and 63.1 µM.
The like results for `CCOc1ccc(F)c(-c2cc([C@@H]3CC[C@@]4(CCN(C)C4=O)N3)nc(C)c2C)c1` [Example 142, (2S,5S)-2-[4-(5-Ethoxy-2-fluoro-phenyl)-5,6-dimethyl-2-pyridyl]-7-methyl-1,7-diazaspiro[4.4]nonan-6-one hydrochloride] were, in that order, 0.794 µM and 15.8 µM.
On to `CCOc1ccc(F)c(-c2cc([C@@H]3CC[C@]4(CCN(C)C4=O)N3)nc(C)c2C)c1` [Example 143, (2S,5R)-2-[4-(5-Ethoxy-2-fluoro-phenyl)-5,6-dimethyl-2-pyridyl]-7-methyl-1,7-diazaspiro[4.4]nonan-6-one hydrochloride], for which the IC50 reads like this: under setting [1], 10 µM; under setting [2], 63.1 µM.
The like results for `CCOc1ccc(F)c(-c2cc([C@H]3CC[C@@]4(CCN(C)C4=O)N3)nc(C)c2C)c1` [Example 144, (2R,5S)-2-[4-(5-Ethoxy-2-fluoro-phenyl)-5,6-dimethyl-2-pyridyl]-7-methyl-1,7-diazaspiro[4.4]nonan-6-one hydrochloride] were, in that order, 3.98 µM and 31.6 µM.
The like results for `CCOc1ccc(F)c(-c2ccnc([C@@H]3CC[C@]4(CCN(C)C4=O)N3)c2)c1` [Example 145, (2S,5R)-2-[4-(5-Ethoxy-2-fluoro-phenyl)-2-pyridyl]-7-methyl-1,7-diazaspiro[4.4]nonan-6-one hydrochloride] were, in that order, 6.31 µM and 79.4 µM.
The like results for `CCOc1ccc(F)c(-c2ccnc([C@H]3CC[C@]4(CCN(C)C4=O)N3)c2)c1` [Example 146, (2R,5R)-2-[4-(5-Ethoxy-2-fluoro-phenyl)-2-pyridyl]-7-methyl-1,7-diazaspiro[4.4]nonan-6-one hydrochloride] were, in that order, 2 µM and 31.6 µM.
`CCOc1ccc(F)c(-c2ccnc([C@@H]3CC[C@@]4(CCN(C)C4=O)N3)c2)c1` [Example 147, (2S,5S)-2-[4-(5-Ethoxy-2-fluoro-phenyl)-2-pyridyl]-7-methyl-1,7-diazaspiro[4.4]nonan-6-one hydrochloride]: the IC50 was 3.16 µM under setting [1] and 50.1 µM under setting [2].
Take `CCOc1cc(-c2ccnc([C@@H]3CC[C@@]4(CCN(C)C4=O)N3)c2)c(F)cc1F` [Example 148, (2S,5S)-2-[4-(5-Ethoxy-2,4-difluoro-phenyl)-2-pyridyl]-7-methyl-1,7-diazaspiro[4.4]nonan-6-one hydrochloride]: the IC50 runs as follows: under setting [1], 31.6 µM; under setting [2], 398 µM.
The like results for `CCOc1cc(-c2ccnc([C@H]3CC[C@@]4(CCN(C)C4=O)N3)c2)c(F)cc1F` [Example 149, (2R,5S)-2-[4-(5-Ethoxy-2,4-difluoro-phenyl)-2-pyridyl]-7-methyl-1,7-diazaspiro[4.4]nonan-6-one hydrochloride] were, in that order, 25.1 µM and 398 µM.

The values are drawn from US9376436B2, “2-(pyridin-2yl)-1, 7-diaza-spiro [4.4] nonane-6-one compound as voltage-gated sodium channels modulators” (CONVERGENCE PHARMACEUTICALS LIMITED, priority 2011, dated 2016).
